pIC50: −log10 of the molar value.
Columns and labels:
Mus musculus = species: Mus musculus; test: Cytotoxicity against mouse RAW264.7 cells assessed as reduction in cell viability at 1 to 10 uM after 24 hrs by cell counting based colorimetric analysis; type: toxicity; conditions: raw264.7, 24 h
[1] = Antiinflammatory activity in mouse RAW264.7 cells assessed as reduction in LPS-induced NO production after 24 hrs in presence of LPS by colorimetric analysis; type: functional, cell-based; conditions: RAW264.7, 24 h

| pIC50 [1] | SMILES | Activity (Mus musculus) |
| --- | --- | --- |
| 4.31 | CC#Cc1ccc(-c2ccc(C(O)CO)s2)s1 (stereo not given) | – |
| 4.51 | CC#Cc1ccc(-c2ccc(C(CO)OC)s2)s1 (stereo not given) | – |
| < 4.00 | CC#Cc1ccc(-c2ccc(C=O)s2)s1 | – |
| < 4.00 | CC#Cc1ccc(-c2ccc(C(=O)OC)s2)s1 | – |
| 4.55 | C/C=C/C#CC#Cc1ccc(C(O)CO)s1 (stereo not given) | – |

The remaining lines, values behind:

| SMILES | pIC50 [1] | Activity (Mus musculus) |
| --- | --- | --- |
| C=C(C)[C@@H]1CC[C@]2(C)C(=C(C)OC3=C2C[C@H]2C4C[C@H](C(C)C)CC[C@@]4(C)CC(=O)[C@@]2(O)O3)C1 (stereo not given in full) | – | Toxic |
| C/C=C\C#CC#Cc1ccc(C(O)CO)s1 (stereo not given) | 4.89 | – |
| C=C1CCC[C@]2(C)C[C@]3(O)OC(=O)C(C)=C3C[C@@H]12 [ATRACTYLENOLIDE III] | < 4.00 | – |
| COc1ccc2c(c1)c(CC(=O)O)c(C)n2C(=O)c1ccc(Cl)cc1 [INDOMETHACIN] | 4.88 | – |
| N=C(N)NN [PIMAGEDINE] | 4.62 | – |

From ChEMBL document CHEMBL3868628, “Dimeric sesquiterpene and thiophenes from the roots of Echinops latifolius” (Bioorg Med Chem Lett, 2016)
